These results are taken from patent publication US20230127046A1, “G9a INHIBITOR” (RIKEN, priority 2019, published 2023).

In this test the target is T1, recombinant human G9a protein (Homo sapiens, UniProt Q96KQ7).
T1 construct: purchased BPS Bioscience Inc. #51001
T1 sequence (Q96KQ7 785-1210 limits assumed): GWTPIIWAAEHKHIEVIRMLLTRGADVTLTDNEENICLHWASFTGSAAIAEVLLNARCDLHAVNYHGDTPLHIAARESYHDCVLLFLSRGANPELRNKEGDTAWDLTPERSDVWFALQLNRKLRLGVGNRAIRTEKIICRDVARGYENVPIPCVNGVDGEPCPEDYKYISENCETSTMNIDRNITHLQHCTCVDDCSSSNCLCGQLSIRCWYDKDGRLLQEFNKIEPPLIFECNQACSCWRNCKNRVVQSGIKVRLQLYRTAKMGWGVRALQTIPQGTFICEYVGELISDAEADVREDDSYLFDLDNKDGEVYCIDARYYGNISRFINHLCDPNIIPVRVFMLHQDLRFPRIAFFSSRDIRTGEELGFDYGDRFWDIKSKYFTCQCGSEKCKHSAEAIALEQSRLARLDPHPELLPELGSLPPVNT
The test can be described thus: G9a inhibitory activity test (ALPHA). Type of test: biochemical. The method, boiled down: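 Human G9a (0.05 to 0.1 nM) in Tris pH 9.0 buffer preincubated with compound 10 min, then biotinylated histone H3 (1-21) peptide and SAM mixed 1:1 from 500 nM and 150 μM solutions, 1 h at room temperature. H3K9me2 detected by AlphaLISA acceptor/streptavidin donor beads; IC50 from percent inhibition relative to no-compound and no-enzyme controls.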

Setting [1] is: read-out: Inhibitory activity (G9a IC50).
The mark [2] stands for this setting: biotinylated histone H3 peptide (1-21), SAM, read-out: Inhibitory activity (G9a IC50 value).

Molecules are shown by their SMILES. Where two headings read alike, the source gives them in different places.

In general, IC50 refers to the concentration at which inhibition is half-maximal. For `Cc1c(C(=O)NC(CCC2CC2)C(=O)N2CCc3c(OCCN4CCCCC4)cccc32)[nH]c2c1C(=O)CC(C)(C)C2` (stereo not drawn) [Example 1-123], under setting [1], the IC50 fell in the range of 50 to 200 nM.

Take `Cc1c(C(=O)NC(CCC2CC2)c2nc3ccccc3n2C)[nH]c2c1C(=O)CC(C)(C)C2` (stereo not drawn) [Example 30-1, N-[3-cyclopropyl-1-(1-methylbenzoimidazol-2-yl)propyl]-3,6,6-trimethyl-4-oxo-5,7-dihydro-H-indole-2-carboxamide]: under setting [1], the IC50 lay in the range of 50 to 200 nM.

With `CCCCC(NC(=O)c1[nH]c2c(c1C)C(=O)CC(C)(C)C2)C(=O)Nc1ccnc2ccccc12` (stereo not drawn) [Example 9-1, 3,6,6-trimethyl-4-oxo-N-[1-oxo-1-(quinolin-4-ylamino)hexan-2-yl]-5,7-dihydro-1H-indole-2-carboxamide], under setting [1], the IC50 is not below 200 nM.

For the molecule `CCCCC(NC(=O)c1ccc(Nc2ccncc2)cc1)C(=O)Nc1ccc(OC)cc1` (stereo not drawn) [Example 9-2], the half-maximal inhibitory concentration (IC50) under setting [1] is 50 to 200 nM.

Turning to `CCCCC(NC(=O)c1[nH]c2c(c1C)C(=O)CC(C)(C)C2)C(=O)NCc1ccc(CN2CCCC2)cc1` (stereo not drawn) [Example 18-11], the concentration for half-maximal inhibition (IC50) under setting [1] was less than 50 nM.

In the case of `CCCCC(NC(=O)c1[nH]c2c(c1C)C(=O)CC(C)(C)C2)C(=O)Nc1ccnn1CC` (stereo not drawn) [Example 1-17], the concentration for half-maximal inhibition (IC50) under setting [2] is not below 200 nM.

As for `CCc1nc(C)ccc1NC(=O)C(CCC1CC1)NC(=O)c1[nH]c2c(c1C)C(=O)CC(C)(C)C2` (stereo not drawn) [Example 1-75], the IC50 under setting [2] was not below 200 nM.

As for `COc1ccc(NC(=O)C(CCC2CC2)NC(=O)c2ccc(NCCN(C)C)cc2)cn1` (stereo not drawn) [Example 6-66], under setting [1], the IC50 is not below 200 nM.

Consider `CCCCC(NC(=O)c1[nH]c2c(c1C)C(=O)CC(C)(C)C2)C(=O)Nc1ccc2[nH]cc(CN(C)C)c2c1` (stereo not drawn) [Example 1-100], for which, under setting [2], the IC50 is less than 50 nM.

Regarding `CCCC[C@H](NC(=O)c1[nH]c2c(c1C)C(=O)CC(C)(C)C2)C(=O)NCc1ccc(N2CCNCC2)cc1` [Example 26-8], the IC50 under setting [1] was less than 50 nM.

For the molecule `Cc1c(C(=O)N[C@H](CCC2CC2)C(=O)N(C)[C@H](C)c2ccccc2)[nH]c2c1C(=O)CC(C)(C)C2` [Example 13-4], the IC50 under setting [1] was not below 200 nM.

Regarding `CCCC[C@H](NC(=O)c1[nH]c2c(c1C(C)C)C(=O)CC(C)(C)C2)C(=O)Nc1ccccc1` [Example 6-36], the IC50 under setting [1] was 50 to 200 nM.

`CCCCC(NC(=O)c1[nH]c2c(c1C)C(=O)CC(C)(C)C2)C(=O)Nc1ccccc1C` (stereo not drawn) [Example 1-13]: the half-maximal inhibitory concentration (IC50) under setting [2] is not below 200 nM.

As for `CCCCC(NC(=O)c1[nH]c2c(c1C)C(=O)CC(C)(C)C2)C(=O)Nc1ccc(N2CCC3(CNC3)C2)nc1` (stereo not drawn) [Example 27], under setting [1], the IC50 was 50 to 200 nM.

Take `COc1ccc(NC(=O)C(CCC2CC2)NC(=O)c2ccc(-n3ccc4cnccc43)cc2C)cn1` (stereo not drawn) [Example 6-70]: the IC50 under setting [1] is less than 50 nM.

As to `CCCCC(NC(=O)c1[nH]c2c(c1C)C(=O)CC(C)(C)C2)C(=O)Nc1ccc(OC2CCN(C)CC2)nc1` (stereo not drawn) [Example 1-6], the half-maximal inhibitory concentration (IC50) under setting [2] was 50 to 200 nM.

`Cc1c(C(=O)NC(CCC2CC2)C(=O)Nc2ccncc2)[nH]c2c1C(=O)CC(C)(C)C2` (stereo not drawn) [Example 1-73]: under setting [2], the 50% inhibitory concentration (IC50) is not below 200 nM.

As for `CCCCC(NC(=O)c1sc(-c2ccccc2)nc1C(F)(F)F)C(=O)Nc1ccc(OC2CCN(C)CC2)nc1` (stereo not drawn) [Example 11-3], under setting [1], the IC50 was in the range of 50 to 200 nM.

For the molecule `Cc1ccc(NC(=O)C(CCC2CC2)NC(=O)c2[nH]c3c(c2C)C(=O)CC(C)(C)C3)cc1` (stereo not drawn) [Example 1-61], the IC50 under setting [2] is 50 to 200 nM.

On to `Cc1c(C(=O)N[C@@H](CCC2CC2)C(=O)N(C)[C@H](C)c2ccccc2)[nH]c2c1C(=O)CC(C)(C)C2` [Example 13-3], for which, under setting [1], the half-inhibitory concentration (IC50) is not below 200 nM.

Take `CCCCC(NC(=O)c1[nH]c2c(c1C)C(=O)CC(C)(C)C2)C(=O)Nc1cccc2ncccc12` (stereo not drawn) [Example 1-14]: the IC50 under setting [2] was not below 200 nM.

As for `CCCCC(NC(=O)c1[nH]c2c(c1C)C(=O)CC(C)(C)C2)C(=O)Nc1ccc2cn[nH]c2c1` (stereo not drawn) [Example 1-101], the IC50 under setting [2] is not below 200 nM.

For the molecule `Cc1c(C(=O)NC(CCC2CC2)c2nc3c(CN(C)C4CCN(C)CC4)cccc3n2C)[nH]c2c1C(=O)CC(C)(C)C2` (stereo not drawn) [Example 31-7], the IC50 under setting [1] is not below 200 nM.

Consider `CCCCC(NC(=O)c1[nH]c2c(c1C)C(=O)CC(C)(C)C2)C(=O)Nc1cccc2c1CCN(C(=O)OC(C)(C)C)C2` (stereo not drawn) [Example 1-115], for which the IC50 under setting [1] was not below 200 nM.

For the molecule `Cc1c(C(=O)NC(CCC2CC2)C(=O)N2CCc3cc(CN4CCCC4)ccc32)[nH]c2c1C(=O)CC(C)(C)C2` (stereo not drawn) [Example 1-127], the concentration for half-maximal inhibition (IC50) under setting [1] is 50 to 200 nM.

In the case of `CCCCC(NC(=O)c1[nH]c2c(c1C)C(=O)CC(C)(C)C2)C(=O)Nc1cccc(C)c1C` (stereo not drawn) [Example 1-25], under setting [2], the IC50 was not below 200 nM.

Take `Cc1c(C(=O)NC(CCC2CC2)C(=O)Nc2ccc(SC(F)F)cc2)[nH]c2c1C(=O)CC(C)(C)C2` (stereo not drawn) [Example 1-65]: under setting [2], the IC50 is not below 200 nM.

As to `CCCCC(NC(=O)c1[nH]c2c(c1C)C(=O)CC(C)(C)C2)C(=O)Nc1ccccc1OC` (stereo not drawn) [Example 1-11], the IC50 under setting [2] was not below 200 nM.

`Cc1c(C(=O)NC(CCC2CC2)C(=O)N2CCc3c(OCCN4CCCC4)cccc32)[nH]c2c1C(=O)CC(C)(C)C2` (stereo not drawn) [Example 1-120]: under setting [1], the half-maximal inhibitory concentration (IC50) lay in the range of 50 to 200 nM.

Turning to `Cc1cc(-n2ccc3cnccc32)ccc1C(=O)NC(CCC1CC1)C(=O)Nc1ccc(C#N)nc1` (stereo not drawn) [Example 6-83], under setting [1], the IC50 fell in the range of 50 to 200 nM.

Regarding `CCCCC(NC(=O)c1[nH]c2c(c1C)C(=O)CC(C)(C)C2)C(=O)Nc1cccc2c1OCC2` (stereo not drawn) [Example 1-35], the half-inhibitory concentration (IC50) under setting [2] is not below 200 nM.

In the case of `CCCCC(NC(=O)c1[nH]c2c(c1C)C(=O)CC(C)(C)C2)C(=O)Nc1ccc(NC2CCN(C)CC2)nc1` (stereo not drawn) [Example 1-5], the half-maximal inhibitory concentration (IC50) under setting [2] is less than 50 nM.

Regarding `CCCCC(NC(=O)c1[nH]c2c(c1C)C(=O)CC(C)(C)C2)C(=O)Nc1cc(OC)c(OC)c(OC)c1` (stereo not drawn) [Example 1-109], the IC50 under setting [2] was not below 200 nM.

With `COc1ccc(NC(=O)C(CCC2CC2)NC(=O)c2ccc(Nc3ccncc3)nc2)cn1` (stereo not drawn) [Example 6-56], the IC50 under setting [1] is not below 200 nM.

As to `Cc1c(C(=O)N[C@@H](CCC2CC2)C(=O)N(C)[C@@H](C)c2ccccc2)[nH]c2c1C(=O)CC(C)(C)C2` [Example 13-5], under setting [1], the IC50 is not below 200 nM.

In the case of `CCc1c(C(=O)N[C@@H](CCC2CC2)C(=O)Nc2ccc(C#N)cc2)[nH]c2c1C(=O)CC(C)(C)C2` [Example 15-3], under setting [1], the IC50 lay in the range of 50 to 200 nM.

`CCCCC(NC(=O)c1[nH]c2c(c1C)C(=O)CC(C)(C)C2)C(=O)Nc1ccc2[nH]c(C)cc2c1` (stereo not drawn) [Example 1-95]: the IC50 under setting [2] is not below 200 nM.

As for `CCCCC(NC(=O)c1[nH]c2c(c1C)C(=O)CC(C)(C)C2)C(=O)Nc1ccc(C)cc1OC` (stereo not drawn) [Example 1-37], the half-maximal inhibitory concentration (IC50) under setting [2] was not below 200 nM.

As for `N#Cc1ccc(NC(=O)C(CCC2CC2)NC(=O)c2ccc(Nc3ccncc3)cc2)cn1` (stereo not drawn) [Example 6-82], under setting [1], the IC50 was less than 50 nM.

For the molecule `CCCCC(NC(=O)c1[nH]c2c(c1C)C(=O)CC(C)(C)C2)C(=O)NCc1ccc(CN2CCOCC2)cc1` (stereo not drawn) [Example 18-5], the concentration for half-maximal inhibition (IC50) under setting [1] is not below 200 nM.

For `CCCC[C@H](NC(=O)c1[nH]c2c(c1C(C)C)C(=O)CC(C)(C)C2)C(=O)N[C@@H](C)c1ccccc1` [Example 6-41], under setting [1], the half-maximal inhibitory concentration (IC50) is 50 to 200 nM.

For `COc1ccc(NC(=O)C(CCC2CC2)NC(=O)c2ccc(OCCN(C)C)cc2)cn1` (stereo not drawn) [Example 6-67], the IC50 under setting [1] is not below 200 nM.

On to `CCCCC(NC(=O)CC1CCCCC1)C(=O)Nc1ccc(OC2CCN(C)CC2)nc1` (stereo not drawn) [Example 11-2], for which the IC50 under setting [1] was not below 200 nM.

For the molecule `CCCCC(NC(=O)c1ccc(Nc2ccccc2)cc1C)C(=O)Nc1ccc(OC2CCN(C)CC2)nc1` (stereo not drawn) [Example 11-6], under setting [1], the concentration for half-maximal inhibition (IC50) is not below 200 nM.

Take `CCCC[C@H](NC(=O)c1[nH]c2c(c1C)C(=O)CC(C)(C)C2)C(=O)N[C@@H](CO)c1ccccc1` [Example 6-45]: under setting [1], the IC50 lay within 50 to 200 nM.

For `Cc1c(C(=O)NC(CCC2CC2)C(=O)N(C)Cc2ccc(CN(C)C)cc2)[nH]c2c1C(=O)CC(C)(C)C2` (stereo not drawn) [Example 6-20], under setting [1], the half-inhibitory concentration (IC50) was less than 50 nM.

For the molecule `COc1ccc(NC(=O)C(CCC2CC2)NC(=O)c2ccc(Nc3ccncc3)cc2Cl)cn1` (stereo not drawn) [Example 6-77], the IC50 under setting [1] was less than 50 nM.

On to `Cc1c(C(=O)NC(CCC2CC2)c2nc3cc(CN(C)C)ccc3n2C)[nH]c2c1C(=O)CC(C)(C)C2` (stereo not drawn) [Example 32, N-[3-cyclopropyl-1-[5-[(dimethylamino)methyl]-1-methylbenzoimidazol-2-yl]propyl]-3,6,6-trimethyl-4-oxo-5,7-dihydro-1H-indole-2-carboxamide], for which, under setting [1], the IC50 was not below 200 nM.

With `CCCCC(NC(=O)c1[nH]c2c(c1C)C(=O)CC(C)(C)C2)C(=O)NCc1cccc(CN(C)CCN(C)C)n1` (stereo not drawn) [Example 6-3], the IC50 under setting [1] fell in the range of 50 to 200 nM.

Consider `COc1ccc(NC(=O)C(CCC2CC2)NC(=O)c2ccc(Nc3ccncc3C)cc2)cn1` (stereo not drawn) [Example 6-65], for which the IC50 under setting [1] was less than 50 nM.

In the case of `Cc1ccc2c(c1)CCN2C(=O)C(CCC1CC1)NC(=O)c1[nH]c2c(c1C)C(=O)CC(C)(C)C2` (stereo not drawn) [Example 1-77], the IC50 under setting [2] is not below 200 nM.

Regarding `O=C(NC(CCC1CC1)C(=O)Nc1ccc(O)nc1)c1ccc(Nc2ccncc2)cc1` (stereo not drawn) [Example 1-89], under setting [2], the IC50 was less than 50 nM.

In the case of `Cc1c(C(=O)NC(CCC2CC2)C(=O)Nc2ccc(CCN(C)C)cc2)[nH]c2c1C(=O)CC(C)(C)C2` (stereo not drawn) [Example 1-139], the IC50 under setting [1] was less than 50 nM.

Take `CCOc1ccc(NC(=O)C(CCC2CC2)NC(=O)c2ccc(Nc3ccncc3)cc2)cn1` (stereo not drawn) [Example 6-80]: under setting [1], the IC50 was less than 50 nM.
